The text below walks through data of PMC7589057, “Synthesis of Hantzsch Adducts as Cholinesterases and Calcium Flux inhibitors, Antioxidants and Neuroprotectives” (International Journal of Molecular Sciences, 2020).

“And” between values parts separate entries of the source, which are not always exact repeats. Equal values may be shown once. A value given as a limit tells only on which side of the number the result lay.

Assay [1] is described as follows: Oxygen radical absorbance capacity assay (ORAC-FL). As to conditions: Trolox equivalents, mean (n = 3) ± SEM. The procedure: Briefly, fluorescein and antioxidant were incubated in a black 96-well microplate (Nunc) for 15 min at 37 °C. 2,2′-Azobis(amidinopropane) dihydrochloride was then added quickly using the built-in injector of Varioskan Flash plate reader (Thermo Scientific). […] All the reactions were made in triplicate and at least three different assays were performed for each sample [9, 30].

In assay [2] the target is eqBuChE (Equus caballus, UniProt P81908). Briefly: biochemical. The conditions noted are these: for inhibition at 10 µM: read-out: BuChE % inhibition at 10 μM (no IC50 given), 10 μM; for IC50: mean ± SEM, read-out: BuChE IC50. How it is done: (§1) The evaluation of the activity of compounds against both EeAChE and eqBuChE was evaluated following the Ellman spectrophotometric method. Briefly, the reaction happens in a final volume of 3 mL of a 0.1 M phosphate-buffered solution at pH = 8.0, containing 5,5′-dithiobis-2-nitrobenzoic acid, EeAChE or eqBuChE, tested compound and bovine albumin serum phosphate-buffered (pH = 8) solution After this pre-incubation period, acetylthiocholine iodide or butyrylthiocholine iodide was added, allowing 15 min of additional incubation time.
Sequence of eqBuChE (P81908 whole entry): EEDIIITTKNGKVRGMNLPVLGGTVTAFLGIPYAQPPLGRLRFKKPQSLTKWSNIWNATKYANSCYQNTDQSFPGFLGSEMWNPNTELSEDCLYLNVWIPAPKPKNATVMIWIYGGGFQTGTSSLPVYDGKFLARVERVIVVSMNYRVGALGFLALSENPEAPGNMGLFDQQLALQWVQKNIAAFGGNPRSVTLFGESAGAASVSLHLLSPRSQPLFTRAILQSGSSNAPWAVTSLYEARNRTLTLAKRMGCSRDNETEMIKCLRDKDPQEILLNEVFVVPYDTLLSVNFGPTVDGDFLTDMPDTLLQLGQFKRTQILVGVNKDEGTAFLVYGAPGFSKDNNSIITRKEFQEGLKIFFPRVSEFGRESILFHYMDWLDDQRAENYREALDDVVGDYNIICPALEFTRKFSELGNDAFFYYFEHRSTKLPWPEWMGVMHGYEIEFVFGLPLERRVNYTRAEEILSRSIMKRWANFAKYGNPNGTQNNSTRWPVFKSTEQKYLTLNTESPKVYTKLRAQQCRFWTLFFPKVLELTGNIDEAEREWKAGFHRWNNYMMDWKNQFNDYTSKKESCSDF

For assay [3], the system named is Ca^+2 channel. The experiment in a line: Calcium channel blockade (FLIPR Calcium 6, KCl/CaCl2-stimulated SH-SY5Y cells). The conditions noted are these: 10 μM; SH-SY5Y cells stimulated with KCl/CaCl2. Format: cell-based. How it is done: The calcium channel blockade assay was performed as described earlier. Briefly, the SH-SY5Y cells were seeded out in 96-well dark-walled plates at a density of 1 × 10^5 cells per well. After 24 h, the cells were loaded with FLIPR Calcium 6 indicator (Molecular Devices) for 2 h at 37 °C, according to the manufacturer’s protocol. Compounds were dissolved in an appropriate amount of DMSO at 10 mM concentration and diluted to a final concentration of 10 μM in Hanks′ Balanced Salt Solution (HBSS, Thermo Fisher Scientific) buffered with HEPES (Sigma-Aldrich) at pH = 7.4, and as such used were for treatment of indicator loaded cells (10 min at 37 °C). […] The baseline fluorescence was recorded for 5 s. Then, the cells were stimulated with KCl/CaCl2 solution (in HBSS, final concentration of KCl and CaCl2 was 90 and 5 mM, respectively) and the fluorescence was recorded for a further 30 s. Dimethyl sulfoxide 1% solution in HBSS was used as a vehicle control. Nimodipine (Cayman Chemical Company) was used as a reference inhibitor at 10 μM and compounds were assessed at the same final concentration in triplicate in three independent experiments. Fluorescent intensity values were normalized to the baseline.

The target of assay [4] is EeAChE (Electrophorus electricus, UniProt O42275). Briefly: biochemical. As to conditions: read-out: AChE % inhibition at 10 μM (no IC50 given); EeAChE; 10 μM. Format: biochemical. How it is done:
as §1

Assay [5] deals with SH-SY5Y cells. The experiment in a line: Neuroprotection against oligomycin A/rotenone (O/R)-induced cell death in SH-SY5Y cells (MTS). The class given is cell-based. As to conditions: for O/R (%) neuroprotection: O at 10 µM/R at 30 µM. How it is done:
(§2) The most balanced compounds were then submitted to evaluation of their neuroprotection activity. For this purpose, cytotoxicity was induced by H2O2, a well-known toxic responsible for the generation of ROS and by mitochondrial respiratory chain blockers oligomycin rotenone (O/R). Prior to the neuroprotective assay, the effect of the compounds on cell viability was evaluated at 1 and 10 µM, showing no cytotoxicity against SH-SY5Y cells.
(§3) SH-SY5Y cells were seeded in 96-well culture plates at a density of 12 × 10^4 cells per well in DMEM/F12 (1:1) medium supplemented with 10% fetal bovine serum, 1X non-essential amino acids, 100 units/mL penicillin and […] streptomycin (Dutscher, France). After 48 h of incubation, the cultures were treated with 100 µl of the test compounds or DMSO (0.1%) in the same medium. After 24 h, the cells were co-incubated with H2O2 (200 µM) or O/R (O at 10 µM/R at 30 µM) with or without the tested compounds at noncytotoxic concentrations for an additional period of 24 h. The percentage of cell viability was measured using CellTiter 96 AQueous Non-Radioactive Cell Proliferation (MTS) Assay (Promega, France).

For assay [6], the system named is SH-SY5Y cells. Briefly: Neuroprotection against H2O2-induced cell death in SH-SY5Y cells (MTS). Format: cell-based. The conditions noted are these: for H2O2 (%) neuroprotection: H2O2 200 µM. How it is done: as §2, §3

Sequence of EeAChE (O42275 24-633): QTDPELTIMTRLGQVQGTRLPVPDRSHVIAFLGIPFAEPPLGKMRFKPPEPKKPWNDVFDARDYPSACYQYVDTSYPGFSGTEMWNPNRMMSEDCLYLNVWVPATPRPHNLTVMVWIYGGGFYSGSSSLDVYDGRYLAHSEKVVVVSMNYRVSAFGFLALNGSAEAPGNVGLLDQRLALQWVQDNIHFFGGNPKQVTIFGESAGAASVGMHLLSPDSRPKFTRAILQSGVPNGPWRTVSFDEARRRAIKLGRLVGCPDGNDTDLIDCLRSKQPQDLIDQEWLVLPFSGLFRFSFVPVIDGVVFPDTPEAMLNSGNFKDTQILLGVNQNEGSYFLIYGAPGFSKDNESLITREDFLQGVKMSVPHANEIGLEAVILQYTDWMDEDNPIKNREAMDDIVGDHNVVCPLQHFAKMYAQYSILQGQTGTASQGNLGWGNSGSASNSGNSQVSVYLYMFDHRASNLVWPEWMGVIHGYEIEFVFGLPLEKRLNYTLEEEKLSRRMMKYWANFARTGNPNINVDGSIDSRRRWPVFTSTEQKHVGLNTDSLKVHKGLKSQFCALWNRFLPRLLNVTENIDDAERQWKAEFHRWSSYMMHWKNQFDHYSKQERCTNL

Consider `CCOC(=O)C1=C(C)NC(C)=C(C(=O)OCC)C1c1ccc(OCCCCCN2CCOCC2)cc1` [3a, Diethyl-2,6-dimethyl-4-(4-((5-morpholinopentyl)oxy)phenyl)-1,4-dihydropyridine-3,5-dicarboxylate], for which the ORAC in assay [1] worked out at 1.31 ± 0.01 TE. In addition, the inhibition at 10 µM in assay [2] and in assay [4] was less than 50% each time. The “(%) Ca Flux Inhibition” value in assay [3] was 18.58%.
As to `COC(=O)C1=C(C)NC(C)=C(C(=O)OC)C1c1ccc(OCCCCCN2CCOCC2)cc1` [3b, Dimethyl-2,6-dimethyl-4-(4-((5-morpholinopentyl)oxy)phenyl)-1,4-dihydropyridine-3,5-dicarboxylate], the ORAC in assay [1] is 2.59 TE and 2.59 ± 0.04 TE. The inhibition at 10 µM in assay [2] and in assay [4] was less than 50% in each case. Moreover, in assay [3], the “(%) Ca Flux Inhibition” value is reported as 31.89%.
On to `CCOC(=O)C1=C(C)NC(C)=C(C(=O)OCC)C1c1ccc(OCCCCCN(CC)CC)cc1` [3c, Diethyl-4-(4-((5-(diethylamino)pentyl)oxy)phenyl)-2,6-dimethyl-1,4-dihydropyridine-3,5-dicarboxylate], for which the ORAC in assay [1] is 2.64 TE and 2.64 ± 0.04 TE. The “neuroprotective effect against O/R (in words)” value in assay [5] is listed as “modest”. In addition, the “O/R (%) neuroprotection” value in assay [5] (0.3 µM) was determined as 22.27 ± 0.09%; in assay [5] (1 µM) it was 25.87 ± 0.04%. Further, in assay [2], the IC50 was found to be 4.6 ± 0.1 µM. Moreover, in assay [3], the “(%) Ca Flux Inhibition” value was 58.21%. Moreover, the inhibition at 10 µM in assay [4] is less than 50%. Further, the “neuroprotective effect against H2O2 (in words)” value in assay [6] was “modest”. For the same compound, the results for the “H2O2 (%) neuroprotection” value in assay [6] (0.3 µM) and in assay [6] (1 µM) were 12.37 ± 0.08% and 24.17 ± 0.12%, respectively.
For `CCN(CC)CCCCCOc1ccc(C2C(C(=O)OC)=C(C)NC(C)=C2C(=O)OC)cc1` [3d, Dimethyl-4-(4-((5-(diethylamino)pentyl)oxy)phenyl)-2,6-dimethyl-1,4-dihydropyridine-3,5-dicarboxylate], in assay [1], the ORAC is reported as 1.93 ± 0.68 TE. Further, the inhibition at 10 µM in assay [2] and in assay [4] was less than 50% in each case. The “(%) Ca Flux Inhibition” value in assay [3] came to 39.55%.
Turning to `CCOC(=O)C1=C(C)NC(C)=C(C(=O)OCC)C1c1ccc(OCCCCCN2CCN(C)CC2)cc1` [3e, Diethyl-2,6-dimethyl-4-(4-((5-(4-methylpiperazin-1-yl)pentyl)oxy)phenyl)-1,4-dihydropyridine-3,5-dicarboxylate], the ORAC in assay [1] was 1.78 ± 0.00 TE. The inhibition at 10 µM in assay [2] and in assay [4] was less than 50% throughout. In addition, the “(%) Ca Flux Inhibition” value in assay [3] is on record as 40.51%.
Turning to `COC(=O)C1=C(C)NC(C)=C(C(=O)OC)C1c1ccc(OCCCCCN2CCN(C)CC2)cc1` [3f, Dimethyl-2,6-dimethyl-4-(4-((5-(4-methylpiperazin-1-yl)pentyl)oxy)phenyl)-1,4-dihydropyridine-3,5-dicarboxylate], the ORAC in assay [1] stood at 1.38 ± 0.02 TE. The inhibition at 10 µM in assay [2] and in assay [4] was less than 50% throughout. In assay [3], the “(%) Ca Flux Inhibition” value amounted to 38.4%.
For `CCOC(=O)C1=C(C)NC(C)=C(C(=O)OCC)C1c1ccc(OCCCCCN2CCC(Cc3ccccc3)CC2)cc1` [3g, Diethyl-4-(4-((5-(4-benzylpiperidin-1-yl)pentyl)oxy)phenyl)-2,6-dimethyl-1,4-dihydropyridine-3,5-dicarboxylate], the ORAC in assay [1] worked out at 2.24 ± 0.04 TE. In addition, the inhibition at 10 µM in assay [2] and in assay [4] was less than 50% in each case. Besides, the “(%) Ca Flux Inhibition” value in assay [3] is listed as 53.6%.
On to `CCOC(=O)C1=C(C)NC(C)=C(C(=O)OCC)C1c1ccc(OCCCCCCN2CCOCC2)cc1` [3i, 3,5-Ethyl-2,6-dimethyl-4-(4-{[6-(morpholin-4-yl)hexyl]oxy}phenyl)-1,4-dihydropyridine-3,5-dicarboxylate], for which the ORAC in assay [1] is reported as 1.22 ± 0.02 TE. Also, the inhibition at 10 µM in assay [2] and in assay [4] was less than 50% in each case. In assay [3], the “(%) Ca Flux Inhibition” value is given as 47.55%.
Regarding `COC(=O)C1=C(C)NC(C)=C(C(=O)OC)C1c1ccc(OCCCCCCN2CCOCC2)cc1` [3j, 3,5-Dimethyl-2,6-dimethyl-4-(4-{[6-(morpholin-4-yl)hexyl]oxy}phenyl)-1,4-dihydropyridine-3,5-dicarboxylate], in assay [1], the ORAC is recorded as 0.99 ± 0.09 TE. For the same compound, the inhibition at 10 µM in assay [2] and in assay [4] was less than 50% each time. Besides, the “(%) Ca Flux Inhibition” value in assay [3] is reported as 52.57%.
For the compound `CCOC(=O)C1=C(C)NC(C)=C(C(=O)OCC)C1c1ccc(OCCCCCCN(CC)CC)cc1` [3k, 3,5-Diethyl-4-(4-{[6-(diethylamino)hexyl]oxy}phenyl)–2,6–dimethyl-1,4–dihydropyridine-3,5-dicarboxylate], the ORAC in assay [1] was found to be 1.21 ± 0.12 TE. In addition, the IC50 in assay [2] was found to be 9.6 ± 0.3 µM. Moreover, the “(%) Ca Flux Inhibition” value in assay [3] was found to be 31.66%. In assay [4], the inhibition at 10 µM was less than 50%.
Take `CCN(CC)CCCCCCOc1ccc(C2C(C(=O)OC)=C(C)NC(C)=C2C(=O)OC)cc1` [3l, 3,5-Dimethyl-4-(4-{[6-(diethylamino)hexyl]oxy}phenyl)-2,6–dimethyl-1,4–dihydropyridine-3,5-dicarboxylate]: the ORAC in assay [1] was 0.91 TE and 0.91 ± 0.01 TE. Further, the half-maximal inhibitory concentration (IC50) in assay [2] came out at 8.7 ± 0.1 µM. In addition, the “(%) Ca Flux Inhibition” value in assay [3] was 39.74%. The inhibition at 10 µM in assay [4] is less than 50%.
On to `COC(=O)C1=C(C)NC(C)=C(C(=O)OC)C1c1ccc(OCCCCCCN2CCN(C)CC2)cc1` [3n, 3,5-Dimethyl-2,6-dimethyl-4-(4-{[6-(4-methylpiperazin-1-yl)hexyl]oxy}phenyl)-1,4-dihydro-pyridine-3,5-dicarboxylate], for which the ORAC in assay [1] is 1.39 ± 0.12 TE. Moreover, the inhibition at 10 µM in assay [2] and in assay [4] was less than 50% each time. The “(%) Ca Flux Inhibition” value in assay [3] is 28.9%.
Turning to `CCOC(=O)C1=C(C)NC(C)=C(C(=O)OCC)C1c1ccc(OCCCCCCN2CCC(Cc3ccccc3)CC2)cc1` [3o], the ORAC in assay [1] was determined as 1.36 ± 0.01 TE. For the same compound, the inhibition at 10 µM in assay [2] and in assay [4] was less than 50% each time. Moreover, the “(%) Ca Flux Inhibition” value in assay [3] stood at 80.19%.
As for `COC(=O)C1=C(C)NC(C)=C(C(=O)OC)C1c1ccc(OCCCCCCN2CCC(Cc3ccccc3)CC2)cc1` [3p, 3,5-Dimethyl-4-(4-{[6-(4-benzylpiperidin-1-yl)hexyl]oxy}phenyl)-2,6-dimethyl-1,4-dihydro-pyridine-3,5-dicarboxylate], the ORAC in assay [1] is 2.28 ± 0.01 TE. For the same compound, the inhibition at 10 µM in assay [2] and in assay [4] was less than 50% each time. For the same compound, the “(%) Ca Flux Inhibition” value in assay [3] stood at 78.13%.
Consider `COCCOC(=O)C1=C(C)NC(C)=C(C(=O)OC(C)C)C1c1cccc([N+](=O)[O-])c1` (stereo not drawn) [NIM, nimodipine, reference compound], for which the “(%) Ca Flux Inhibition” value in assay [3] is given as 47.91%.

The inhibition is the share of the control response that was lost under treatment. The term IC50 denotes the concentration needed to halve the response being measured.
